Earlier results as cited in patent US20050101563A1, “Method and compositions for the treatment and prevention of pain and inflammation” (Pharmacia Corporation, priority 2001, published 2005).

Tests used:
[1] = test system: Cox-2; conditions: enzyme inhibitory compounds of Ligustrum lucidum extracts
[2] = test system: patients with knee osteoarthritis; conditions: 1500 mg/day, 3 years
[3] = test system: human chondrocytes
[4] = orally administered; rats
[5] = test system: rats; conditions: orally administered; sponge implants in rats

C[C@H]1[C@H](C)CC[C@]2(C(=O)O)CC[C@]3(C)C(=CC[C@@H]4[C@@]5(C)CC[C@H](O)C(C)(C)[C@@H]5CC[C@]43C)[C@H]12 [ursolic acid]
selectivity for the inhibition of Cox-2 versus Cox-1 [1]: not substantially more selective for the inhibition of Cox-2 than for Cox-1

N[C@H]1C(O)O[C@H](CO)[C@@H](O)[C@@H]1O.O=S(=O)(O)O (stereo partly drawn) [glucosamine sulfate]
joint-space loss [2]: no significant joint-space loss

CC1(C)CC[C@]2(C(=O)O)CC[C@]3(C)C(=CC[C@@H]4[C@@]5(C)CC[C@H](O)C(C)(C)[C@@H]5CC[C@]43C)[C@@H]2C1 [oleanic acid]
selectivity for the inhibition of Cox-2 versus Cox-1 [1]: not substantially more selective for the inhibition of Cox-2 than for Cox-1

CC(=O)N[C@H]1C(O)O[C@H](CO)[C@@H](O)[C@@H]1O (stereo partly drawn) [N-acetylglucosamine]
IL-1-beta-mediated activation of chondrocytes [3]: prevent IL-1-beta-mediated activation of human chondrocytes

chondroitin sulfate
tissue tropism [4]: tropism for cartilagineous tissues
granuloma formation [5]: significantly decrease granuloma formation
